Test results reported in patent US6194423A, “Fused isoquinolines as dopamine receptor ligands” (priority 1999, dated 2001).
pEC50: −log10 of the molar value. Entries after “also recorded” stand apart in the source; their conditions may differ.

Columns and labels:
[1] = target: T1, rat striatal D1 receptors (Rattus norvegicus, UniProt P18901); assay: D1 receptor binding ([3H]SCH23390) in rat striatal homogenates; conditions: for D1 binding nH (Hill slope): competition against 3H-SCH23390
T1 construct: Frozen rat striata were homogenized; from tissue; host or cells: rat striatum (adult male Sprague Dawley), washed membrane homogenate
T1 sequence (P18901 whole entry): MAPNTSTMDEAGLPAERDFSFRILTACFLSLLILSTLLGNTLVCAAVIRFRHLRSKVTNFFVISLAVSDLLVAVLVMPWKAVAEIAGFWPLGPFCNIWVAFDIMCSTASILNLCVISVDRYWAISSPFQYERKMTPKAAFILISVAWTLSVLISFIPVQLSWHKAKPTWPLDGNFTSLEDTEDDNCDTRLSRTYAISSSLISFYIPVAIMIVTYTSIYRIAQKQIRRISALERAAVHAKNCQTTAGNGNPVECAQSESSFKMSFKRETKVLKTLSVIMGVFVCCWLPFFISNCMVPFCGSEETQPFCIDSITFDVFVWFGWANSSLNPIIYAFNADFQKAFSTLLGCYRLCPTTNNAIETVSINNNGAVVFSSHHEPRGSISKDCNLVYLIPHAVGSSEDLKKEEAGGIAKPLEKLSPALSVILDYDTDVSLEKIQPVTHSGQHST
Protocol: Dopamine receptor binding assays.
Data analysis for radioreceptor assays. […] Data were normalized by expressing the average dpm at each competitor concentration as a percentage of total binding.
Competition curves were analyzed by non linear regression to determine estimates for the K0.5 and Hill slope (nH). Data represent the mean and standard error from three independent assays for each test compound.

[2] = target: D1 receptors; assay: Adenylate cyclase activity (cAMP accumulation) in rat striatal homogenates; assay type: biochemical; conditions: rat striatum; for agonist activity / efficacy, in words: relative to dopamine
Protocol: Adenylate cyclase activity in rat striatum. The automated HPLC method of Schulz and Mailman was used to measure adenylate cyclase activity by separating cAMP from other labeled nucleotides. […] Triplicate determinations were performed for each drug concentration.
The reaction proceeded for 15 min at 30° C. and was terminated by the addition of 100 μL of 3% sodium dodecyl sulfate (SDS). […] Samples were centrifuged (10,000×g for 8-9 min), and the supernatants injected on an HPLC system (Waters Z-module or RCM 8×10 module equipped with a C18, 10 micron cartridge). […] The radioactivity in each fraction was determined by a flow-through radiation detector (Inus Systems, Tampa, Fla.) using Cerenkov counting. Sample recovery was based on UV measurement of total unlabeled CAMP peak areas quantified using PE Nelson (Cupertino, Calif.) Model 900 data collection modules and TurboChrom software.
Data analysis for adenylate cyclase studies. Data for each sample were expressed initially as pmol/mg/min cAMP. Baseline values of cAMP were subtracted from the total amount of cAMP produced in each drug condition. Data for each drug were expressed relative to the stimulation produced by 100 μM DA.

[3] = target: T2, primate D1A receptors expressed in C-6 glioma cells (Macaca mulatta, UniProt O77680); assay: Adenylate cyclase (cAMP accumulation) assay in C-6-mD1A cell membranes; assay type: biochemical, rhesus macaque; conditions: for agonist activity / efficacy, in words: cloned primate D1A receptors in C-6 glioma cells, relative to dopamine
T2 construct: expressed in transfected cells; host or cells: C-6 glioma cells (C-6-mD1A), membranes
T2 sequence (O77680 whole entry): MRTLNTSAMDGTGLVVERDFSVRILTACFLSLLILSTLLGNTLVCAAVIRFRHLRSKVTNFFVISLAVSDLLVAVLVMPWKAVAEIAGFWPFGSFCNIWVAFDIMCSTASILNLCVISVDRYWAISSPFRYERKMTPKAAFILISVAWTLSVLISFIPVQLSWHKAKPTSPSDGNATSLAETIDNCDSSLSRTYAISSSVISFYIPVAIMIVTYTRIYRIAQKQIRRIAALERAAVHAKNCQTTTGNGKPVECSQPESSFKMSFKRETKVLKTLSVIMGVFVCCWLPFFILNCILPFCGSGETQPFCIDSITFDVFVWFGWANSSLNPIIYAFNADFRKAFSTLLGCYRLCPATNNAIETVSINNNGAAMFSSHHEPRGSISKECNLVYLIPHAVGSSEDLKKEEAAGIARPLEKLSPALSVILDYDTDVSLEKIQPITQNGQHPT
Protocol: Cell Cultures. C-6 glioma cells expressing the rhesus macaque D1 A receptor, (C-6-mD1A; Machida et al., 1992) were grown in DMEM-H medium containing 4,500 mg/L glucose, L-glutamine, 5% fetal bovine serum and […] G418 or 2 μg/mL puromycin. Cells were maintained in a humidified incubator at 37° C. with 5% CO2.
Membrane Preparation. Cells were grown in 75 cm^2 flasks until confluent. The cells were rinsed and lysed with 10 mL of ice cold hypoosmotic buffer (HOB) (5 mM Hepes, 2.5 mM MgCl2, 1 mM EDTA; pH 7.4) for 10 minutes at 4° C. Cells were then scraped from the flasks using a sterile cell scraper from Baxter (McGaw Park, Ill.). Flasks received a final rinse with 5 mL of HOB. The final volume of the cell suspension recovered from each flask was ca. 14 mL. Scraped membranes from several flasks were then combined. The combined cell suspension was homogenized (10 strokes), 14 mL at a time, using a 15 mL Wheaton Teflon-glass homogenizer. The cell homogenates were combined and spun at 43,000×g (Sorvall RC-5B/SS-34, Du Pont, Wilmington, Del.) at 4° C. for 20 min. The supernatant was removed, and the pellet was resuspended (10 strokes) in 1 mL of ice cold HOB for each original flask of cells homogenized. This homogenate was then spun again at 43,000×g at 4° C. for 20 min. The supernatant was removed and the final pellet was resuspended (10 strokes) in ice cold storage buffer (50 mM Hepes, 6 mM MgCl2, 1 mM EDTA; pH 7.4) to yield a final concentration of ca. 2.0 mg of protein/mL. Aliquots of the final homogenate were stored in microcentrifuge tubes at -80° C.
Adenylate cyclase assay in C-6mD1A cells. Frozen membranes were thawed and added to assay tubes (10 μg protein/tube) containing a prepared reaction mixture [100 TnM Hepes, (pH 7.4), 100 mM NaCl, 4 mM MgCl2, 2 mM EDTA, 500 μM isobutyl methylxanthine (IBMX), 0.01% ascorbic acid, 10 μM pargyline, 2 mM ATP, 5 μM GTP, 20 mM phosphocreatine, 5 units of creatine phosphokinase (CPK), 1 μM propranolol] and selected drugs. The final reaction volume was 100 μL.
Basal cAMP activity was determined by incubation of tissue in the reaction mixture with no drug added. Tubes were assayed in duplicate and, after a 15 min incubation at 30° C., the reaction was stopped by the addition of 500 μL of 0.1 N HCl. Tubes were vortexed briefly, and then spun in a BHG HermLe Z 230 M microcentrifuge for five min at 15,000×g to precipitate particulates.
Radioimmunoassay (RIA) of CAMP. The concentration of cAMP in each sample was determined with an RIA of acetylated cAMP, modified from that previously described. Iodination of cAMP was performed using a method reported by Patel and Linden. Assay buffer was 50 mM sodium acetate buffer with 0.1% sodium azide (pH 4.75). Standard curves of cAMP were prepared in buffer at concentrations of 2 to 500 fmol/assay tube. To improve assay sensitivity, all samples and standards were acetylated with 10 μl of a 2:1 solution of triethylamine:acetic anhydride. Samples were assayed in duplicate. Each assay tube (total volume 300 μL) contained 25 μL of each sample, 75 μL of buffer, 100 μL of primary antibody (sheep, anti-cAMP, 1:100,000 dilution with 1% BSA in buffer) and 100 μL of [^125 I]-cAMP (50,000 dpm/100 μL of buffer). Tubes were vortexed and stored at 4° C. overnight (approx. 18 h). Antibody-bound radioactivity was separated by the addition of 25 μL of BioMag rabbit, anti-goat IgG (Advanced Magnetics, Cambridge Mass.), followed by vortexing and incubation at 4° C. for 1 h. […]

[4] = test system: D1 receptor; conditions: cited from earlier work
[5] = target: D2 receptors (Rattus norvegicus, UniProt P61169)
Chain of D2 receptors (P61169 whole entry): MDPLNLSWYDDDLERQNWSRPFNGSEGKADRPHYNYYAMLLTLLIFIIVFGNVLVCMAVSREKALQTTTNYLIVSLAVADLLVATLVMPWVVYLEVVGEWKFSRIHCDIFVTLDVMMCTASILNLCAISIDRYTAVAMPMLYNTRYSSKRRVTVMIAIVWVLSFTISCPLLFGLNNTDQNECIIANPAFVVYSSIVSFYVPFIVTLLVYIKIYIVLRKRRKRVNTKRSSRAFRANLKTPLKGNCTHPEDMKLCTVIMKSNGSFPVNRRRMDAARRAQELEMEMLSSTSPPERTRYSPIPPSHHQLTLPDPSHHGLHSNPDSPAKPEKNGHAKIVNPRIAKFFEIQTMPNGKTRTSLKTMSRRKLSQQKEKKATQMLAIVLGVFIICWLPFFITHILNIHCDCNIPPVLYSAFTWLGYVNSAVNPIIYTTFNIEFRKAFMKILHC

[6] = test system: MPTP-treated monkey; conditions: MPTP-treated monkey model; cited from earlier work

SMILES	D1 binding nH (Hill slope) ([1]; rat striatal homogenates)	agonist activity / efficacy, in words [2]	agonist activity / efficacy, in words [3]	intrinsic efficacy at D1 receptor, in words [4]	also measured
Oc1ccc2c(c1O)Cc1cccc3c1C2CNC3 (racemic) [dinapsoline, (±)-8,9-dihydroxy-2,3,7,11b-tetrahydro-1H-naphtho[1,2,3-de] isoquinoline]	0.66	full agonist activity; also recorded: full agonist relative to dopamine	full efficacy; also recorded: full agonist activity; also recorded: full agonist relative to dopamine	–	slope of D1 competition curve, in words ([1]; FIG. 3): shallow competition curve; also recorded: shallower slopes; D1 affinity, in words ([1]; compared with dihydrexidine, rat striatal homogenates, FIG. 3): high affinity for dopamine D1 receptors; also recorded: almost identical affinity as dihydrexidine; D1 binding nH (Hill slope) ([1]; rat striatal homogenates, listed as (±)-4): 0.66 ± 0.01; pEC50 ([2]; read-out: EC50 in stimulating synthesis of cAMP via D1 receptors): ~7.52; pEC50 ([3]; C-6-mD1 cells, average of two experiments in duplicate, read-out: EC50 in stimulating synthesis of cAMP via D1 receptors): ~7.52
Oc1cc2c(cc1O)C(c1ccccc1)CNCC2 (single isomer, unassigned) [SKF 38393]	0.75 ± 0.08	partial agonist	partial agonist	generally lacked full intrinsic efficacy	agonist activity / efficacy, in words ([3]; listed as (+)-2): only of partial efficacy
Oc1cc2c(cc1O)[C@H]1c3ccccc3CN[C@@H]1CC2 [6aR,12bS]	–	–	–	high affinity full agonist at the D1 receptor	–
CN(C)CCCN1c2ccccc2Sc2ccc(Cl)cc21 [Chlorpromazine]	–	–	–	–	D2 binding nH (Hill slope) ([5]; competition against 3H-spiperone, rat striatal homogenates): 0.93 ± 0.01
NC[C@@H]1O[C@H](C23CC4CC(CC(C4)C2)C3)Cc2c1ccc(O)c2O [Example A-77636]	–	–	–	–	anti-parkinsonian effects [6]: exceptional anti-parkinsonian effects
CN1CCc2cc(Cl)c(O)cc2[C@@H](c2ccccc2)C1 [SCH23390]	1.05 ± 0.01	–	–	–	–
C=CCN1CCc2c(cc(O)c(O)c2Cl)C(c2ccccc2)C1 (stereo not drawn) [SKF 82958]	–	–	–	not to have full intrinsic efficacy in preparations with decreased receptor reserve	–
Oc1cc2c(cc1O)[C@H]1c3ccccc3CN[C@@H]1CC2 [dihydrexidine, (+)-trans-10,11-dihydroxy-5,6,6a,7,8,12b-hexahydrobenzo[a]phenanthridine]	0.65 ± 0.01	full agonist relative to dopamine	full efficacy; also recorded: full agonist relative to dopamine	–	slope of D1 competition curve, in words ([1]; FIG. 3): shallower slopes; slope of D2 competition curve, in words ([5]; FIG. 6, compared with chlorpromazine): shallower than for the prototypical D2 antagonist chlorpromazine; anti-parkinsonian effects [6]: exceptional anti-parkinsonian effects
